Results on 39 compounds are retold here after patent US20250313569A1, “Pharmaceutical Compounds And Compositions As Modulators Of MAS-Related G-Protein Receptor X2” (Enanta Pharmaceuticals, Inc., priority 2024, published 2025).

For one experiment, the target named is T1, MRGPRX2 LAD2 (Homo sapiens, UniProt Q96LB1).
T1 construct: host or cells: LAD2 human mast cells
T1 sequence (Q96LB1 1-330): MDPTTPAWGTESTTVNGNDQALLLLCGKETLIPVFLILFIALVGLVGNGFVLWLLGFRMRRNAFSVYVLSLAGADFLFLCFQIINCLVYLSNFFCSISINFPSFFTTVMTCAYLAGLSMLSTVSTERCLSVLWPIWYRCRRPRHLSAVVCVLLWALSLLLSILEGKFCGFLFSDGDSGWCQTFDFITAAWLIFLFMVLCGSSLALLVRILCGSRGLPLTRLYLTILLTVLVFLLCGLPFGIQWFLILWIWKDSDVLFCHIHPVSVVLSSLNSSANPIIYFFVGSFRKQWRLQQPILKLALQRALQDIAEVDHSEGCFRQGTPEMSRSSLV
Kind of experiment: LAD2 β-hexosaminidase release assay (degranulation), Cortistatin-14 at EC75. The class given is cell-based. The note with it: LAD2 cells; 1 hour compound incubation, Cortistatin-14 at EC75 for 30 minutes; percent degranulation (β-hexosaminidase). Here is the method:
LAD2 cells obtained from the NIH were cultured in StemPro34 (Gibco) serum-free media supplemented with GlutaMax, penicillin and streptomycin, and 100 ng/mL SCF (Invitrogen). Cells were maintained in a 37° C., 5% CO2 humidified incubator at a concentration of 2-5E5 cells/mL, with hemidepletion once a week.
One day prior to the assay, cells were starved of SCF at a concentration of 2.3E5 cells/mL. On the day of the assay cells were washed twice in Tyrode's Buffer containing 0.04% BSA (assay buffer) and plated in a 96 well-v-bottom assay plate at 20,000 cells per well in 80 μL of assay buffer. Compounds were solubilized at 10 mM DMSO and added as a 10-fold overconcentrated 8-point curve in assay buffer in a volume of 10 μL using the JANUS liquid handler. Assay plates were incubated for 1 hour at 37° C. Cortistatin-14 was diluted in assay buffer to […] its predetermined EC75 and added to the assay plates in a volume of 10 μL. Assay plates were incubated at 37° C. for 30 minutes. After incubation, cells were pelleted and 50 μL of supernatant from each well was transferred to a 96 well flat bottom plate containing 100 μL of substrate solution (3.5 mg/mL p-Nitrophenyl-N-acetyl-β-D-glucosaminide (Sigma Aldrich) in 40 mM Citrate Buffer (Thermo Fisher)). The remaining cell pellets were lysed with 150 μL of 0.1% Triton-X-100 and mixed thoroughly. 50 μL of lysate was transferred to a 96-well flat bottom plate containing 100 μL of substrate solution. Plates with supernatants and lysates were incubated at 37° C. for 90 minutes prior to addition of 50 μL of 400 mM Glycine buffer (pH 10.7). The plates were read on a Perkin Elmer Envision plate reader at an Abs of 405 nanometers. Percent degranulation was calculated and Xlfit was used to calculate an EC50 value for each compound using a 4-parameter logistic curve fitting model. EC50 ranges are reported as follows: A<100 nM; B 0.1-1 μM; C>1 μM.
With `O=C(N[C@H]1C[C@@H](Nc2cc(C(F)(F)F)nc3ccc(Cl)cc23)CN(C(=O)C(F)F)C1)c1cn(C[C@@H](O)C(F)(F)F)nc1Cl` [Example 116], the concentration for a half-maximal effect (EC50) was less than 100 nM.

In the case of `CC(=O)N1C[C@@H](NC(=O)c2cn(CC(F)(F)F)nc2C2CCC2)C[C@@H](Nc2cc(C(F)(F)F)nc3ccc(Cl)cc23)C1` [Example 100], the concentration giving a half-maximal response (EC50) was less than 100 nM.

As to `CC(=O)N1C[C@@H](NC(=O)c2cn(CC(F)F)nc2C2CC2)C[C@@H](Nc2cc(C(F)(F)F)nc3ccc(Cl)cc23)C1` [Example 110], the concentration for a half-maximal effect (EC50) was less than 100 nM.

`O=C(N[C@H]1C[C@@H](Nc2cc(C(F)(F)F)nc3ccc(Cl)cc23)CN(C(=O)C(F)F)C1)c1cn(C[C@H](O)C(F)F)nc1Cl` [Example 120] came in with an EC50 of less than 100 nM.

As for `CC(C)(O)C(O)Cn1cc(C(=O)N[C@H]2C[C@@H](Nc3cc(C(F)(F)F)nc4ccc(Cl)cc34)CN(C(=O)C(F)F)C2)c(Cl)n1` (stereo partly drawn) [Example 122], the concentration for a half-maximal effect (EC50) is less than 100 nM.

With `CC(=O)N1C[C@@H](NC(=O)N2CCc3cn(C)nc3C2)C[C@@H](Nc2cc(C(F)(F)F)nc3ccc(Cl)cc23)C1` [Example 129], the EC50 is less than 100 nM.

`O=C(N[C@H]1C[C@@H](Nc2cc(C(F)(F)F)nc3ccc(Cl)cc23)CN(C(=O)C(F)F)C1)N1CCCC2(CC2)C1` [Example 128] gave a concentration giving a half-maximal response (EC50) of less than 100 nM.

`Cc1nn(CC(C)(C)O)cc1C(=O)N[C@H]1C[C@@H](Nc2cc(C(F)(F)F)nc3ccc(Cl)cc23)CN(C(=O)C(F)F)C1` [Example 117]: the half-maximal effective concentration (EC50) was less than 100 nM.

In the case of `CC(=O)N1C[C@@H](NC(=O)c2ccc3cc[nH]c3c2)C[C@@H](Nc2cc(C(F)(F)F)nc3ccc(Cl)cc23)C1` [Example 112], the concentration for a half-maximal effect (EC50) is less than 100 nM.

`CC(=O)N1C[C@@H](NC(=O)c2cn(CC(F)(F)F)nc2C2CC2)C[C@@H](Nc2cc(C(F)(F)F)nc3ccc(Cl)cc23)C1` [Example 109] gave a 50% effective concentration (EC50) of less than 100 nM.

As for `O=C(N[C@H]1C[C@@H](Nc2cc(C(F)(F)F)nc3ccc(Cl)cc23)CN(C(=O)[C@@H]2CC2(F)F)C1)c1cn(CC(F)(F)F)nc1C1CC1` [Example 75], the EC50 is less than 100 nM.

In turn, `CC(=O)N1C[C@@H](NC(=O)c2cn(CC(C)(C)O)nc2C(F)F)C[C@@H](Nc2cc(C(F)(F)F)nc3ccc(Cl)cc23)C1` [Example 103] yielded a half-maximal effective concentration (EC50) of less than 100 nM.

For the compound `CC(C)(O)Cn1cc(C(=O)N[C@H]2C[C@@H](Nc3cc(C(F)(F)F)nc4ccc(Cl)cc34)CN(C(=O)C3(F)CC3)C2)c(Cl)n1` [Example 81], the EC50 was less than 100 nM.

`CC(=O)N1C[C@@H](NC(=O)c2cn(CS(C)(=O)=O)nc2Cl)C[C@@H](Nc2cc(C(F)(F)F)nc3ccc(Cl)cc23)C1` [Example 101] had an EC50 of less than 100 nM.

In turn, `Cn1nnc(N2C[C@@H](NC(=O)c3cn(CC(F)(F)F)nc3C3CC3)C[C@@H](Nc3cc(C(F)(F)F)nc4ccc(Cl)cc34)C2)n1` [Example 93] showed a concentration giving a half-maximal response (EC50) of less than 100 nM.

`CC(C)(O)Cn1cc(C(=O)N[C@H]2C[C@@H](Nc3cc(C(F)(F)F)nc4ccc(Cl)cc34)CN(C(=O)OCC(F)(F)F)C2)c(Cl)n1` [Example 84] returned a concentration giving a half-maximal response (EC50) of less than 100 nM.

Consider `CC(=O)N1C[C@@H](NC(=O)c2cn(CC(F)(F)F)nc2C2CC2)C[C@@H](Nc2cc(C(F)(F)F)nc3c(F)cc(Cl)cc23)C1` [Example 139], for which the EC50 was less than 100 nM.

`CC(C)(O)Cn1cc(C(=O)N[C@H]2C[C@@H](Nc3cc(C(F)(F)F)nc4ccc(Cl)cc34)CN(C3CC(F)(F)C3)C2)c(Cl)n1` [Example 76]: the 50% effective concentration (EC50) fell in the range of 100 to 1000 nM.

With `CC(C)(O)Cn1cc(C(=O)N[C@H]2C[C@@H](Nc3cc(C(F)(F)F)nc4ccc(Cl)cc34)CN(C(=O)COC(F)(F)F)C2)c(Cl)n1` [Example 80], the concentration giving a half-maximal response (EC50) was less than 100 nM.

In the case of `C[C@@H]1CCCN1C(=O)N[C@H]1C[C@@H](Nc2cc(C(F)(F)F)nc3ccc(Cl)cc23)CN(C(=O)C(F)F)C1` [Example 126], the EC50 was less than 100 nM.

The target in the next experiment is T2, human MRGPRX2 (Homo sapiens, UniProt Q96LB1).
T2 construct: expressed in transfected cells; host or cells: HEK293
T2 sequence (Q96LB1 1-330): T1 sequence (Q96LB1 1-330)
Put plainly: MRGPRX2 IP-1 Gq HTRF assay in HEK293 cells stably expressing human MRGPRX2, Cortistatin-14 at EC75. In kind it is cell-based. Particulars: 2 hours at 37° C., cellular IP-1. Here is the method: HEK293 cells stably expressing human MRGPRX2 were grown in Dulbecco's Modified Eagle Medium (DMEM) supplemented with 10% fetal bovine serum (FBS), 1% Glutamax, and 1 μg/mL of puromycin. Cells were maintained in a 37° C., 5% CO2 humidified incubator.
Cells were plated in a 384-well assay plate at a density of 20,000 cells per well overnight. Compounds were solubilized at 10 mM in DMSO and added as a 10-point curve using an ECHO acoustic liquid handler. On the day of the assay, Cortistatin-14 was diluted in assay buffer (provided by IP-One-Gq-HTRF kit purchased from Cisbio, 62IPAPEJ) and added to the assay plate at a final concentration corresponding to the predetermined EC75. Plates were incubated at 37° C. for 2 hours prior to addition of HTRF detection reagents per the manufacturer's instructions. The plates were read on a Perkin Elmer Envision plate reader. The HTRF ratio and cellular IP-1 levels were calculated. XLfit was used to calculate an EC50 value for each compound using a 4-parameter logistic curve fitting model. EC50 ranges are reported as follows: A<100 nM; B 0.1-1 μM; C>1 μM.
`CC(=O)N1C[C@@H](NC(=O)c2ccc(C(F)(F)F)cc2)C[C@@H](Nc2cc(C(F)(F)F)nc3ccc(Cl)cc23)C1` [Example 67] returned an EC50 of 100 to 1000 nM.

Compound `CS(=O)(=O)Nc1cccc(C(=O)N[C@H]2CC(Nc3cc(C(F)(F)F)nc4ccc(Cl)cc34)CN(C(=O)C3CCC3)C2)c1` (stereo partly drawn) [Example 17] showed an EC50 of 100 to 1000 nM.

On to `CC(=O)N1C[C@@H](NC(=O)c2ccc(F)c(F)c2)C[C@@H](Nc2cc(C(F)(F)F)nc3ccc(Cl)cc23)C1` [Example 26], for which the concentration giving a half-maximal response (EC50) was 100 to 1000 nM.

`CS(=O)(=O)Nc1cccc(C(=O)N[C@@H]2CNC[C@H](Nc3cc(C(F)(F)F)nc4ccc(Cl)cc34)C2)c1` [Example 7] showed an EC50 greater than 1000 nM.

`CS(=O)(=O)Nc1cccc(C(=O)N[C@H]2C[C@@H](Nc3cc(C(F)(F)F)nc4ccc(Cl)cc34)CN(CC(F)F)C2)c1` [Example 73] gave a 50% effective concentration (EC50) of less than 100 nM.

`CCn1cc(C(=O)N[C@H]2C[C@@H](Nc3cc(C(F)(F)F)nc4ccc(Cl)cc34)CN(C(C)=O)C2)cn1` [Example 31] returned an EC50 of less than 100 nM.

Compound `CCn1cc2cc(C(=O)N[C@H]3C[C@@H](Nc4cc(C(F)(F)F)nc5ccc(Cl)cc45)CN(C(C)=O)C3)ccc2n1` [Example 57] showed a concentration for a half-maximal effect (EC50) of less than 100 nM.

As for `CS(=O)(=O)Nc1cccc(C(=O)N[C@H]2CC(N(C(=O)C3CC3)c3cc(C(F)(F)F)nc4ccc(Cl)cc34)CN(C(=O)C3CC3)C2)c1` (stereo partly drawn) [Example 18], the EC50 was 100 to 1000 nM.

In turn, `CS(=O)(=O)Nc1cccc(-c2cn([C@@H]3CNC[C@H](Nc4cc(C(F)(F)F)nc5ccc(Cl)cc45)C3)nn2)c1` [Example 54, N-(3-(1-((3S,5R)-5-((6-Chloro-2-(trifluoromethyl)quinolin-4-yl)amino)piperidin-3-yl)-1H-1,2,3-triazol-4-yl)phenyl) methanesulfonamide] came in with an EC50 of 100 to 1000 nM.

`CC(=O)N1C[C@@H](NC(=O)c2ccc(F)cc2)C[C@@H](Nc2cc(C(F)(F)F)nc3ccc(Cl)cc23)C1` [Example 23]: the EC50 was less than 100 nM.

Compound `CS(=O)(=O)Nc1cccc(C(=O)N[C@H]2CC(Nc3cc(C(F)(F)F)nc4ccc(Cl)cc34)CN(C(=O)Nc3ccccc3)C2)c1` (stereo partly drawn) [Example 20] came in with an EC50 of 100 to 1000 nM.

In the case of `CC(=O)N1C[C@@H](NC(=O)c2cnn(C)c2C)C[C@@H](Nc2cc(C(F)(F)F)nc3ccc(Cl)cc23)C1` [Example 39], the 50% effective concentration (EC50) is 100 to 1000 nM.

For `CC(=O)N1C[C@@H](NC(=O)c2ccc(C(F)(F)F)nc2)C[C@@H](Nc2cc(C(F)(F)F)nc3ccc(Cl)cc23)C1` [Example 63], the EC50 is 100 to 1000 nM.

`CC(=O)N1C[C@@H](NC(=O)c2cn(CC(C)(C)O)nc2Cl)C[C@@H](Nc2cc(C(F)(F)F)nc3ccc(Cl)cc23)C1` [Example 65] displayed an EC50 of less than 100 nM.

`CC(=O)N1C[C@@H](Nc2nnc(-c3ccc(F)cc3)o2)C[C@@H](Nc2cc(C(F)(F)F)nc3ccc(Cl)cc23)C1` [Example 71] gave a concentration giving a half-maximal response (EC50) greater than 1000 nM.

Turning to `CC(=O)N1C[C@@H](NC(=O)c2cccc(NS(C)(=O)=O)c2)C[C@@H](Nc2ccc(C#N)c(C(F)(F)F)c2)C1` [Example 46], the EC50 was greater than 1000 nM.

On to `CS(=O)(=O)Nc1cccc(C(=O)N[C@H]2CC(Nc3cc(C(F)(F)F)nc4ccc(Cl)cc34)CN(C(=O)C3CC3)C2)c1` (stereo partly drawn) [Example 16], for which the half-maximal effective concentration (EC50) fell in the range of 100 to 1000 nM.

Compound `CC(=O)N1C[C@H](Nc2cc(C(F)(F)F)nc3ccc(Cl)cc23)C[C@H](n2cc(-c3cccc(NS(C)(=O)=O)c3)nn2)C1` [Example 55] displayed a concentration giving a half-maximal response (EC50) of 100 to 1000 nM.

As for `CC(=O)N1C[C@@H](NC(=O)c2cnn(C(F)F)c2)C[C@@H](Nc2cc(C(F)(F)F)nc3ccc(Cl)cc23)C1` [Example 40], the half-maximal effective concentration (EC50) is less than 100 nM.
